Our source for the IC50 values is US20190010167A1, “INHIBITORS OF THE MENIN-MLL INTERACTION” (Vitae Pharmaceuticals, Inc., priority 2015, published 2019).

Structures are written as SMILES. Structures can show the parent of a compound that is named as a salt.

The target of test [1] is T1, mutated menin / MLL-AF9 fusion protein (Homo sapiens, UniProt O00255).
T1 construct: biotinylated (1) wild-type menin or (2) mutated menin (described in Nature (2012) Vol. 482, pp. 542-548); fused on or other part: Biotin attached chemically with Sulfo-NHS-Biotin; This is a label, not a fusion
T1 sequence (O00255 1-610): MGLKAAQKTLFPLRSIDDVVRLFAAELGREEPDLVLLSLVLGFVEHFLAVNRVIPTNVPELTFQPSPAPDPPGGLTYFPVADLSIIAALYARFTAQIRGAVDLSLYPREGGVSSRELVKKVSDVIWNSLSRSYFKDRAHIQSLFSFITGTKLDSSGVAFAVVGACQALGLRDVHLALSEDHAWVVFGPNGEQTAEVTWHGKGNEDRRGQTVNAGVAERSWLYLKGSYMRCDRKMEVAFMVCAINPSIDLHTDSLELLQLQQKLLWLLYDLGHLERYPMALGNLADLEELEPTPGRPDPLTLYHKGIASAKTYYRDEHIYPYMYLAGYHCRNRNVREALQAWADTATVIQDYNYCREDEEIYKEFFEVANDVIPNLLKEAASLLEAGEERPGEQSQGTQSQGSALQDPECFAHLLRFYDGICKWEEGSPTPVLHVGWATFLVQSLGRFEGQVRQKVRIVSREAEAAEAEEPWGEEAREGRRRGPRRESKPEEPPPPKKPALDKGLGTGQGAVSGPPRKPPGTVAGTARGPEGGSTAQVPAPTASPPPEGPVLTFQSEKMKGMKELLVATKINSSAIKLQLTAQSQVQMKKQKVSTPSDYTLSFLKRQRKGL
The test can be described thus: AlphaLISA menin/MLL binding assay, mutated menin (Assay 1). The following applies: biotinylated mutated menin 5 nM, MLL-AF9-FLAG lysate, read-out: Assay 1 Mutant Menin IC50. The method, then: Potencies of inhibitor compounds against menin/MLL binding were assessed by AlphaLISA assay using biotinylated (1) wild-type menin or (2) mutated menin (described in Nature (2012) Vol. 482, pp. 542-548) and MLL-AF9 fusion protein bearing a FLAG epitope at its C-terminus. Menin proteins were expressed in E. coli and covalently modified with biotin using EZ-Link™ Sulfo-NHS-Biotin (ThermoFisher Cat. No. 21217) according to manufacturer's protocol. MLL1-1,396 fused to AF91-92 and the C-terminal FLAG peptide was expressed in HEK293 cells and used as a lysate cleared at 21,000×g for 10 min.
Compounds (2 μL of solutions in DMSO) were dispensed in white 96-well half-area plates (Corning Cat. No. 3693) and incubated for 30 min at RT with 5 nM biotinylated menin and appropriate amount of MLL-AF9-FLAG lysate in 40 μL of 50 mM Tris-HCl buffer pH 7.4 containing 5% (v/v) DMSO, 50 mM NaCl, 0.01% (w/v) bovine serum albumin (BSA) and 1 mM DTT. To this incubation mixture, 40 μl of AlphaLISA anti-FLAG acceptor (PerkinElmer Cat. No. AL112C) and streptavidin donor (PerkinElmer Cat. No. 6760002) beads (10 μg/mL each) was added and incubation continued at RT for 60 min. Alpha (amplified luminescent proximity homogeneous assay) signal was measured on an Envision multi-label plate reader at the end of the incubation. All steps were conducted under dim fluorescent light.
These percent inhibition values were regressed against compound concentrations in the assay using four parameter logit non-linear curve fitting (XLFit, IDBS). The IC50 values were derived from the curve fitting as inflection points on the dose-response curves and are set out in Table 1 below.

Test [2] has as its target T2, wild-type menin / MLL-AF9 fusion protein (Homo sapiens, UniProt O00255).
T2 construct: made in house; host or cells: E. coli (menin); HEK293 cleared lysate (MLL-AF9-FLAG)
T2 sequence (O00255 1-610): T1 sequence (O00255 1-610)
The test can be described thus: AlphaLISA menin/MLL binding assay, wild-type menin (Assay 1). The following applies: biotinylated wild-type menin 5 nM, MLL-AF9-FLAG lysate. Put shortly:
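Biotinylated wild-type or mutated menin (5 nM, E. coli-expressed) was preincubated 30 min at RT with compound and HEK293 lysate containing MLL1-1,396–AF9 1-92–FLAG. Buffer was 50 mM Tris-HCl pH 7.4, 5% DMSO, 50 mM NaCl, 0.01% BSA, 1 mM DTT. Anti-FLAG acceptor and streptavidin donor beads (10 μg/mL each) were then added for 60 min. IC50 came from a four-parameter fit of the Alpha signal inhibition.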
On the technique in general: Alpha assays give light when donor and acceptor beads are brought close together.

Test [3] concerns the target T3, menin/MLL (Gal4-Menin and MLL1-46-VP16) in HEK293 cells (Homo sapiens, UniProt O00255).
T3 construct: expressed in transfected cells; host or cells: HEK293 (ATCC)
The test can be described thus: Mammalian cellular two-hybrid assay in HEK293 cells (Assay 2, cell assay). Format: cell-based. The following applies: Gal4-Menin/MLL1-46-VP16 two-hybrid, NanoLuc luciferase reporter, 16-18 h. Here is the method: Potencies of inhibitor compounds against menin/MLL were tested in a mammalian cellular two-hybrid assay system. HEK293 cells (American Type Culture Collection (ATCC); Manassas, Va.) were co-transfected with three plasmids: one encoding Gal4-Menin (200 ng per 10^6 cells), another encoding MLL1-46-VP16 (100 ng per 10^6 cells), and a reporter plasmid pNL3.3-4×UAS (500 ng per 10^6 cells) encoding secreted NanoLuc® luciferase (Promega) with the upstream 4×UAS repeats for Gal4 binding. Transfection was performed in Opti-MEM® media using Lipofectamine® LTX with Plus™ Reagent (ThermoFisher Scientific) according to manufacturer's protocol. Cells were incubated with transfection reagents at 37° C. 5% CO2 for 5-6 h, harvested by trypsinization and centrifugation at 300×g for 5 min and resuspended in Gibco® DMEM media (phenol red-free, no antibiotics) containing 10% delipidated fetal bovine serum (FBS) (ThermoFisher Scientific). Concentration of cells in the media was adjusted to 3.5×10^5 cells/ml, and 100 μl of the cell suspension was dispensed into each well of 96-well Costar™ black clear bottom cell culture plates (Fisher Scientific). Tested compounds were added as 100 μL of 2× solutions in the media. Final concentration of DMSO was 0.1% in all wells. The cells were incubated with tested compounds at 37° C. 5% CO2 for 16-18 h. At the end of the incubation, 40 μL of the conditioned media from each well was transferred into each well of 96-well Costar™ black half-area plates (Fisher Scientific), to which 40 μl of 2× reconstituted NanoGlo® luciferase assay reagent (Promega) was added and thoroughly mixed on a microshaker for 2-3 min. Remaining media in the culture plates was removed by emptying the wells and blotting the plates on filter paper. The cells were lysed with 1× CellTiter-Glo® Luminescent Cell Viability Assay reagent (Promega) for assessing toxicity of the tested compounds. Both, Nano-Glo® and CellTiter-Glo® luminescence intensities were measured on EnVision® multilabel plate reader (PerkinElmer). Percent inhibition values were calculated based on Nano-Glo® luciferase activity observed with the tested compounds vs. DMSO control and commercially available menin inhibitor MI-2-2 (4-(4-(5,5-Dimethyl-4,5-dihydrothiazol-2-yl)piperazin-1-yl)-6-(2,2,2-trifluoroethyl)thieno[2,3-d]pyrimidine) (EMD Millipore, Cat. No. 444825) incubated with cells at 5 μM. These percent inhibition values were regressed against compound concentrations in the assay using non-linear 4-parameter logit curve fitting (XLFit, IDBS). Half maximal inhibitory concentrations (IC50) were calculated as the parameters of the fit corresponding to the inflection points on semi-logarithmic dose-response curves.
In general terms: Reporter assays use an easily measured gene product as a stand-in for the process of interest.

T3 sequence (P04386 1-147 partner limits assumed, species assumed, one chain of several): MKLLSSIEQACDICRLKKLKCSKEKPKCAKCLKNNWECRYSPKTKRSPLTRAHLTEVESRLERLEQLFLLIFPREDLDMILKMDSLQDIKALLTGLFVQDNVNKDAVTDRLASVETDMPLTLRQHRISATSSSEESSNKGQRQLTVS

Broadly, the IC50 is the concentration needed to halve the response being measured. `CC1(C)CN=C(N2CC3(CCN(c4ncnc5sc(CC(F)(F)F)cc45)CC3)C2)S1` [Example 10, 4-(2-(5,5-dimethyl-4,5-dihydrothiazol-2-yl)-2,7-diazaspiro[3.5]nonan-7-yl)-6-(2,2,2-trifluoroethyl)thieno[2,3-d]pyrimidine]: the IC50 in test [1] was in the range of 100 to 1000 nM.

For `CC1(C)CN=C(N2CCC3(CCN(c4ncnc5sc(CC(F)(F)F)cc45)CC3)C2)S1` [Example 27, 4-(2-(5,5-dimethyl-4,5-dihydrothiazol-2-yl)-2,8-diazaspiro[4.5]decan-8-yl)-6-(2,2,2-trifluoroethyl)thieno[2,3-d]pyrimidine], the IC50 in test [1] fell in the range of 100 to 1000 nM.

With `Cc1c(CN2CCC3(C2)CN(c2ncnc4sc(CC(F)(F)F)cc24)C3)ccc2[nH]c(C#N)cc12` [Example 92, 4-methyl-5-((2-(6-(2,2,2-trifluoroethyl)thieno[2,3-d]pyrimidin-4-yl)-2,6-diazaspiro[3.4]octan-6-yl)methyl)-1H-indole-2-carbonitrile], the results for the IC50 in test [2] and in test [3] were < 100 nM and 100 to 1000 nM, respectively.

Take `FC(F)(F)Cc1cc2c(N3CC4(CCN(CC5CCOCC5)C4)C3)ncnc2s1` [Example 93, 4-(6-((tetrahydro-2H-pyran-4-yl)methyl)-2,6-diazaspiro[3.4]octan-2-yl)-6-(2,2,2-trifluoroethyl)thieno[2,3-d]pyrimidine]: the IC50 was < 100 nM in test [2] and ≥ 1000 nM in test [3].

In the case of `Cc1c(CN2CCC3(CC2)CN(c2ncnc4sc(CC(F)(F)F)cc24)C3)ccc2[nH]c(C#N)cc12` [Example 96, 4-methyl-5-((2-(6-(2,2,2-trifluoroethyl)thieno[2,3-d]pyrimidin-4-yl)-2,7-diazaspiro[3.5]nonan-7-yl)methyl)-1H-indole-2-carbonitrile hydrochloride], the IC50 in test [2] and in test [3] was < 100 nM in each case.

Regarding `CS(=O)(=O)Nc1ccc(CN2CCC3(CC2)CN(c2ncnc4sc(CC(F)(F)F)cc24)C3)cc1` [Example 97, N-(4-((2-(6-(2,2,2-trifluoroethyl)thieno[2,3-d]pyrimidin-4-yl)-2,7-diazaspiro[3.5]nonan-7-yl)methyl)phenyl)methanesulfonamide], the figures for the IC50 in test [2] and in test [3] were < 100 nM and 100 to 1000 nM, respectively.

In the case of `FC(F)(F)Cc1cc2c(N3CC4(CCN(Cc5ccccc5)CC4)C3)ncnc2s1` [Example 98, 4-(7-benzyl-2,7-diazaspiro[3.5]nonan-2-yl)-6-(2,2,2-trifluoroethyl)thieno[2,3-d]pyrimidine], the IC50 in test [2] and in test [3] was 100 to 1000 nM in each case.

For `FC(F)(F)Cc1cc2c(N3CC4(CCN(CC5CCOCC5)CC4)C3)ncnc2s1` [Example 99, 4-(7-((tetrahydro-2H-pyran-4-yl)methyl)-2,7-diazaspiro[3.5]nonan-2-yl)-6-(2,2,2-trifluoroethyl)thieno[2,3-d]pyrimidine], the results for the IC50 in test [2] and in test [3] were 100 to 1000 nM and ≥ 1000 nM, respectively.

Take `CS(=O)(=O)N[C@H]1CC[C@H](CN2CCC3(CC2)CN(c2ncnc4sc(CC(F)(F)F)cc24)C3)CC1` [Example 106, N-((1r,4r)-4-((2-(6-(2,2,2-trifluoroethyl)thieno[2,3-d]pyrimidin-4-yl)-2,7-diazaspiro[3.5]nonan-7-yl)methyl)cyclohexyl)methanesulfonamide]: the IC50 in test [2] was < 100 nM; in test [3], 100 to 1000 nM.

As for `COC(=O)N[C@H]1CC[C@H](CN2CCC3(CC2)CN(c2ncnc4sc(CC(F)(F)F)cc24)C3)CC1` [Example 107, methyl ((1r,4r)-4-((2-(6-(2,2,2-trifluoroethyl)thieno[2,3-d]pyrimidin-4-yl)-2,7-diazaspiro[3.5]nonan-7-yl)methyl)cyclohexyl)carbamate], the IC50 is < 100 nM in test [2] and 100 to 1000 nM in test [3].

As to `CC(C)CN1CC2(CCN(c3ncnc4sc(CC(F)(F)F)cc34)C2)C1` [Example 108, 4-(2-isobutyl-2,6-diazaspiro[3.4]octan-6-yl)-6-(2,2,2-trifluoroethyl)thieno[2,3-d]pyrimidine], the IC50 in test [2] was < 100 nM; in test [3], 100 to 1000 nM.

As for `FC(F)(F)Cc1cc2c(N3CCC4(CN(CC5CCOCC5)C4)C3)ncnc2s1` [Example 109, 4-(2-((tetrahydro-2H-pyran-4-yl)methyl)-2,6-diazaspiro[3.4]octan-6-yl)-6-(2,2,2-trifluoroethyl)thieno[2,3-d]pyrimidine], the concentration for half-maximal inhibition (IC50) in test [2] and in test [3] was 100 to 1000 nM each time.

For `CCC(C)CN1CC2(CCN(c3ncnc4sc(CC(F)(F)F)cc34)C2)C1` (stereo not shown) [Example 110, 4-(2-(2-methylbutyl)-2,6-diazaspiro[3.4]octan-6-yl)-6-(2,2,2-trifluoroethyl)thieno[2,3-d]pyrimidine], the IC50 in test [2] and in test [3] was 100 to 1000 nM each time.

Consider `O=c1[nH]c2cc(CN3CCC4(CCN(c5ncnc6cc(CC(F)(F)F)sc56)C4)C3)ccc2n1CCO` (stereo not shown) [Example 119, 1-(2-hydroxyethyl)-5-((7-(6-(2,2,2-trifluoroethyl)thieno[3,2-d]pyrimidin-4-yl)-2,7-diazaspiro[4.4]nonan-2-yl)methyl)-1H-benzo[d]imidazol-2(3H)-one], for which the IC50 is < 100 nM in test [2] and 100 to 1000 nM in test [3].

In the case of `O=c1[nH]c2ccc(CN3CCC4(CCN(c5ncnc6sc(CC(F)(F)F)cc56)C4)C3)cc2n1CCO` (stereo not shown) [Example 120], the IC50 in test [2] was < 100 nM; in test [3], ≥ 1000 nM.
